In patent US12121504B1, “Method for producing 1,3-diolein from biomass” (KING SAUD UNIVERSITY, priority 2024, dated 2024):

Tested on: C. auris strain
Format: cell-based, Candida auris
Settings: C. auris strain used in the anti-fungal test
Method: The biological activity of compound 1 (linoleic acid) as an antifungal agent against fluconazole- and caspofungin-resistant C. auris was evaluated using disk diffusion assay for determining the inhibition zone (mm) and two-fold serial microdilution assay for determining the minimal inhibitory concentration (MIC) (mg/mL) according to Dilika et al., (2000) and Zheng et al., (2005). The hexadecanoic acid and isopropyl myristate were prepared (both compounds (data not shown) were used in this stage as a negative control).

Structure (SMILES)	susceptibility of C. auris strain to standard anti-fungal drug
OC(Cn1cncn1)(Cn1cncn1)c1ccc(F)cc1F [fluconazole]	resistant
CC[C@H](C)C[C@H](C)CCCCCCCCC(=O)N[C@H]1C[C@@H](O)[C@@H](NCCN)NC(=O)[C@@H]2[C@@H](O)CCN2C(=O)[C@H]([C@H](O)CCN)NC(=O)[C@H]([C@H](O)[C@@H](O)c2ccc(O)cc2)NC(=O)[C@@H]2C[C@@H](O)CN2C(=O)[C@H]([C@@H](C)O)NC1=O [caspofungin]	resistant
